#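 96-well plates; 48 h exposure; 5 concentrations. Endpoints by linear interpolation between flanking doses. Not reached: highest tested concentration assigned. The concentration for full growth arrest is given as TGI.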
# Assays:
# Experiment in all cases: NCI anticancer screen, dose series, 48 h
# 786-0 renal = test system: 786-0 renal
# A498 renal = test system: A498 renal
# A549 NSCLC = test system: A549 NSCLC
# ACHN renal = test system: ACHN renal
# CAKI-1 renal = test system: CAKI-1 renal
# CCRF-CEM leukemia = test system: CCRF-CEM leukemia
# COLO 205 colon = test system: COLO 205 colon
# DU-145 prostate = test system: DU-145 prostate
# EKVX NSCLC = test system: EKVX NSCLC
# HCC-2998 colon = test system: HCC-2998 colon
# HCT-116 colon = test system: HCT-116 colon
# HCT-15 colon = test system: HCT-15 colon
# HL-60(TB) leukemia = test system: HL-60(TB) leukemia
# HOP-62 NSCLC = test system: HOP-62 NSCLC
# HOP-92 NSCLC = test system: HOP-92 NSCLC
# HS 578T breast = test system: HS 578T breast
# HT29 colon = test system: HT29 colon
# IGROV1 ovarian = test system: IGROV1 ovarian
# K-562 leukemia = test system: K-562 leukemia
# KM12 colon = test system: KM12 colon
# LOX IMVI melanoma = test system: LOX IMVI melanoma
# M14 melanoma = test system: M14 melanoma
# MALME-3M melanoma = test system: MALME-3M melanoma
# MCF7 breast = test system: MCF7 breast
# MDA-MB-231 breast = test system: MDA-MB-231 breast
# MDA-MB-435 = test system: MDA-MB-435
# MDA-N = test system: MDA-N
# MOLT-4 leukemia = test system: MOLT-4 leukemia
# NCI-H226 lung = test system: NCI-H226 lung
# NCI-H23 lung = test system: NCI-H23 lung
# NCI-H460 lung = test system: NCI-H460 lung
# NCI-H522 lung = test system: NCI-H522 lung
# NCI/ADR-RES ovarian = test system: NCI/ADR-RES ovarian
# OVCAR-3 ovarian = test system: OVCAR-3 ovarian
# OVCAR-4 ovarian = test system: OVCAR-4 ovarian
# OVCAR-5 ovarian = test system: OVCAR-5 ovarian
# OVCAR-8 ovarian = test system: OVCAR-8 ovarian
# PC-3 prostate = test system: PC-3 prostate
# RPMI-8226 leukemia = test system: RPMI-8226 leukemia
# RXF 393 renal = test system: RXF 393 renal
# SF-268 CNS = test system: SF-268 CNS
# SF-295 CNS = test system: SF-295 CNS
# SF-539 CNS = test system: SF-539 CNS
# SK-MEL-2 melanoma = test system: SK-MEL-2 melanoma
# SK-MEL-28 melanoma = test system: SK-MEL-28 melanoma
# SK-MEL-5 melanoma = test system: SK-MEL-5 melanoma
# SK-OV-3 ovarian = test system: SK-OV-3 ovarian
# SN12C renal = test system: SN12C renal
# SNB-19 CNS = test system: SNB-19 CNS
# SR leukemia = test system: SR leukemia
# SW-620 colon = test system: SW-620 colon
# T-47D breast = test system: T-47D breast
# TK-10 renal = test system: TK-10 renal
# U251 CNS = test system: U251 CNS
# UACC-257 melanoma = test system: UACC-257 melanoma
# UO-31 renal = test system: UO-31 renal
# BT-549 breast = test system: BT-549 breast
# SNB-75 CNS = test system: SNB-75 CNS
# UACC-62 melanoma = test system: UACC-62 melanoma
smiles,measurement,setting,value
O=C(NC(Nc1ccc(F)c(Cl)c1)(C(F)(F)F)C(F)(F)F)C(C(F)(F)F)C(F)(F)F,TGI,786-0 renal,> 100 µM
same,TGI,A498 renal,> 100 µM
same,TGI,A549 NSCLC,> 100 µM
same,TGI,ACHN renal,36.9 µM
same,TGI,CAKI-1 renal,> 100 µM
same,TGI,CCRF-CEM leukemia,73.9 µM
same,TGI,COLO 205 colon,74.4 µM
same,TGI,DU-145 prostate,> 100 µM
same,TGI,EKVX NSCLC,> 100 µM
same,TGI,HCC-2998 colon,> 100 µM
same,TGI,HCT-116 colon,41.7 µM
same,TGI,HCT-15 colon,> 100 µM
same,TGI,HL-60(TB) leukemia,44.6 µM
same,TGI,HOP-62 NSCLC,> 100 µM
same,TGI,HOP-92 NSCLC,> 100 µM
same,TGI,HS 578T breast,64.7 µM
same,TGI,HT29 colon,67.9 µM
same,TGI,IGROV1 ovarian,33.4 µM
same,TGI,K-562 leukemia,77.1 µM
same,TGI,KM12 colon,> 100 µM
same,TGI,LOX IMVI melanoma,29.9 µM
same,TGI,M14 melanoma,> 100 µM
same,TGI,MALME-3M melanoma,62 µM
same,TGI,MCF7 breast,> 100 µM
same,TGI,MDA-MB-231 breast,78.9 µM
same,TGI,MDA-MB-435,> 100 µM
same,TGI,MDA-N,> 100 µM
same,TGI,MOLT-4 leukemia,57 µM
same,TGI,NCI-H226 lung,64.7 µM
same,TGI,NCI-H23 lung,67.1 µM
same,TGI,NCI-H460 lung,> 100 µM
same,TGI,NCI-H522 lung,44.8 µM
same,TGI,NCI/ADR-RES ovarian,63.4 µM
same,TGI,OVCAR-3 ovarian,> 100 µM
same,TGI,OVCAR-4 ovarian,88.9 µM
same,TGI,OVCAR-5 ovarian,78.1 µM
same,TGI,OVCAR-8 ovarian,> 100 µM
same,TGI,PC-3 prostate,> 100 µM
same,TGI,RPMI-8226 leukemia,66.8 µM
same,TGI,RXF 393 renal,63.4 µM
same,TGI,SF-268 CNS,> 100 µM
same,TGI,SF-295 CNS,> 100 µM
same,TGI,SF-539 CNS,48.7 µM
same,TGI,SK-MEL-2 melanoma,44.5 µM
same,TGI,SK-MEL-28 melanoma,> 100 µM
same,TGI,SK-MEL-5 melanoma,81.3 µM
same,TGI,SK-OV-3 ovarian,> 100 µM
same,TGI,SN12C renal,> 100 µM
same,TGI,SNB-19 CNS,> 100 µM
same,TGI,SR leukemia,> 100 µM
same,TGI,SW-620 colon,> 100 µM
same,TGI,T-47D breast,> 100 µM
same,TGI,TK-10 renal,> 100 µM
same,TGI,U251 CNS,> 100 µM
same,TGI,UACC-257 melanoma,> 100 µM
same,TGI,UO-31 renal,59.1 µM
COc1ccc(C)cc1NC(=S)N/N=C/c1ccc(SC)cc1,TGI,786-0 renal,> 100 µM
same,TGI,A498 renal,> 100 µM
same,TGI,A549 NSCLC,> 100 µM
same,TGI,ACHN renal,> 100 µM
same,TGI,BT-549 breast,> 100 µM
same,TGI,CAKI-1 renal,> 100 µM
same,TGI,CCRF-CEM leukemia,> 100 µM
same,TGI,COLO 205 colon,> 100 µM
same,TGI,DU-145 prostate,> 100 µM
same,TGI,HCT-116 colon,> 100 µM
same,TGI,HCT-15 colon,> 100 µM
same,TGI,HL-60(TB) leukemia,> 100 µM
same,TGI,HOP-62 NSCLC,> 100 µM
same,TGI,HOP-92 NSCLC,> 100 µM
same,TGI,HS 578T breast,> 100 µM
same,TGI,HT29 colon,> 100 µM
same,TGI,IGROV1 ovarian,> 100 µM
same,TGI,K-562 leukemia,> 100 µM
same,TGI,KM12 colon,> 100 µM
same,TGI,LOX IMVI melanoma,> 100 µM
same,TGI,M14 melanoma,73.9 µM
same,TGI,MALME-3M melanoma,> 100 µM
same,TGI,MCF7 breast,> 100 µM
same,TGI,MDA-MB-435,> 100 µM
same,TGI,MDA-N,> 100 µM
same,TGI,MOLT-4 leukemia,> 100 µM
same,TGI,NCI-H23 lung,> 100 µM
same,TGI,NCI-H522 lung,> 100 µM
same,TGI,NCI/ADR-RES ovarian,> 100 µM
same,TGI,OVCAR-3 ovarian,> 100 µM
same,TGI,OVCAR-4 ovarian,> 100 µM
same,TGI,OVCAR-5 ovarian,> 100 µM
same,TGI,OVCAR-8 ovarian,> 100 µM
same,TGI,PC-3 prostate,> 100 µM
same,TGI,RPMI-8226 leukemia,76.3 µM
same,TGI,RXF 393 renal,> 100 µM
same,TGI,SF-268 CNS,> 100 µM
same,TGI,SF-295 CNS,> 100 µM
same,TGI,SF-539 CNS,89.9 µM
same,TGI,SK-MEL-2 melanoma,> 100 µM
same,TGI,SK-MEL-28 melanoma,> 100 µM
same,TGI,SK-MEL-5 melanoma,51.9 µM
same,TGI,SK-OV-3 ovarian,91.4 µM
same,TGI,SN12C renal,> 100 µM
same,TGI,SNB-19 CNS,> 100 µM
same,TGI,SNB-75 CNS,> 100 µM
same,TGI,SR leukemia,> 100 µM
same,TGI,SW-620 colon,> 100 µM
same,TGI,T-47D breast,> 100 µM
same,TGI,UACC-62 melanoma,> 100 µM
same,TGI,UO-31 renal,> 100 µM
